This data set deals with CCRIS mutagenicity, Ames/micronucleus/aberration tests. In words: CCRIS mutagenicity studies.
[1] abbreviates: Test System: AMES SALMONELLA TYPHIMURIUM, Strain/Indicator: TA98, Metabolic Activation: NONE, Method: PREINCUBATION
[2] abbreviates: Test System: AMES SALMONELLA TYPHIMURIUM, Strain/Indicator: TA98, Metabolic Activation: NONE, Method: STANDARD PLATE.
Where [3] appears, read: Test System: AMES SALMONELLA TYPHIMURIUM, Strain/Indicator: TA100, Metabolic Activation: NONE, Method: PREINCUBATION
[4] abbreviates: Test System: AMES SALMONELLA TYPHIMURIUM, Strain/Indicator: TA100, Metabolic Activation: NONE, Method: STANDARD PLATE.
Setting [5] is: Test System: AMES SALMONELLA TYPHIMURIUM, Strain/Indicator: TA102, Metabolic Activation: NONE, Method: STANDARD PLATE.

These results are taken from PubChem BioAssay AID1259407 (Chemical Carcinogenesis Research Information System (CCRIS), 2018).

Active and inactive are the calls of the source. The rule behind the calls is not given here.

Take `CCCCC(CC)COC(=O)CCCCC(=O)O` (stereo not given): the mutagenic call was “inactive; negative” (Test System: AMES SALMONELLA TYPHIMURIUM, Strain/Indicator: TA97, Metabolic Activation: NONE, Method: STANDARD PLATE); “inactive; negative” (Test System: AMES SALMONELLA TYPHIMURIUM, Strain/Indicator: TA97, Metabolic Activation: RAT, LIVER, S-9, AROCLOR 1254, Method: STANDARD PLATE); “inactive; negative” (Test System: AMES SALMONELLA TYPHIMURIUM, Strain/Indicator: TA97, Metabolic Activation: RAT, LIVER, S-9, DI(2-ETHYLHEXYL)PHTHALATE, Method: STANDARD PLATE); “inactive; negative” (Test System: AMES SALMONELLA TYPHIMURIUM, Strain/Indicator: TA98, Metabolic Activation: HAMSTER, LIVER, S-9, AROCLOR 1254 (10%), Method: PREINCUBATION); “inactive; negative” under setting [1]; “inactive; negative” under setting [2]. Also, the mutagenic call is “inactive; negative” (Test System: AMES SALMONELLA TYPHIMURIUM, Strain/Indicator: TA98, Metabolic Activation: RAT, LIVER, S-9, AROCLOR 1254 (10%), Method: PREINCUBATION); “inactive; negative” (Test System: AMES SALMONELLA TYPHIMURIUM, Strain/Indicator: TA98, Metabolic Activation: RAT, LIVER, S-9, AROCLOR 1254, Method: STANDARD PLATE); “inactive; negative” (Test System: AMES SALMONELLA TYPHIMURIUM, Strain/Indicator: TA98, Metabolic Activation: RAT, LIVER, S-9, DI(2-ETHYLHEXYL)PHTHALATE, Method: STANDARD PLATE); “inactive; negative” (Test System: AMES SALMONELLA TYPHIMURIUM, Strain/Indicator: TA100, Metabolic Activation: HAMSTER, LIVER, S-9, AROCLOR 1254 (10%), Method: PREINCUBATION); “inactive; negative” under setting [3]; “inactive; negative” under setting [4]. Further, the mutagenic call was “inactive; negative” (Test System: AMES SALMONELLA TYPHIMURIUM, Strain/Indicator: TA100, Metabolic Activation: RAT, LIVER, S-9, AROCLOR 1254 (10%), Method: PREINCUBATION); “inactive; negative” (Test System: AMES SALMONELLA TYPHIMURIUM, Strain/Indicator: TA100, Metabolic Activation: RAT, LIVER, S-9, AROCLOR 1254, Method: STANDARD PLATE); “inactive; negative” (Test System: AMES SALMONELLA TYPHIMURIUM, Strain/Indicator: TA100, Metabolic Activation: RAT, LIVER, S-9, DI(2-ETHYLHEXYL)PHTHALATE, Method: STANDARD PLATE); “inactive; negative” under setting [5]; “inactive; negative” (Test System: AMES SALMONELLA TYPHIMURIUM, Strain/Indicator: TA102, Metabolic Activation: RAT, LIVER, S-9, AROCLOR 1254, Method: STANDARD PLATE); “inactive; negative” (Test System: AMES SALMONELLA TYPHIMURIUM, Strain/Indicator: TA102, Metabolic Activation: RAT, LIVER, S-9, DI(2-ETHYLHEXYL)PHTHALATE, Method: STANDARD PLATE). Moreover, the mutagenic call was “inactive; negative” (Test System: AMES SALMONELLA TYPHIMURIUM, Strain/Indicator: TA1535, Metabolic Activation: HAMSTER, LIVER, S-9, AROCLOR 1254 (10%), Method: PREINCUBATION); “inactive; negative” (Test System: AMES SALMONELLA TYPHIMURIUM, Strain/Indicator: TA1535, Metabolic Activation: NONE, Method: PREINCUBATION); “inactive; negative” (Test System: AMES SALMONELLA TYPHIMURIUM, Strain/Indicator: TA1535, Metabolic Activation: RAT, LIVER, S-9, AROCLOR 1254 (10%), Method: PREINCUBATION); “inactive; negative” (Test System: AMES SALMONELLA TYPHIMURIUM, Strain/Indicator: TA1537, Metabolic Activation: HAMSTER, LIVER, S-9, AROCLOR 1254 (10%), Method: PREINCUBATION); “inactive; negative” (Test System: AMES SALMONELLA TYPHIMURIUM, Strain/Indicator: TA1537, Metabolic Activation: NONE, Method: PREINCUBATION); “inactive; negative” (Test System: AMES SALMONELLA TYPHIMURIUM, Strain/Indicator: TA1537, Metabolic Activation: RAT, LIVER, S-9, AROCLOR 1254 (10%), Method: PREINCUBATION).

As to `CC(C)CCO`, the mutagenic call is, setting by setting: (Test System: CHINESE HAMSTER V-79, Strain/Indicator: V-79 (HPRT)/6-THIOGUANINE, Metabolic Activation: NONE, Method: STANDARD PLATE) “inactive; negative”; (Test System: CHINESE HAMSTER V-79, Strain/Indicator: V-79 (HPRT)/6-THIOGUANINE, Metabolic Activation: RAT LIVER S-9, Method: STANDARD PLATE) “inactive; negative”; (Test System: CHINESE HAMSTER V-79 CELLS, Strain/Indicator: V-79 CELLS (HPRT)/6-THIOGUANINE, Metabolic Activation: NONE, Method: PREINCUBATION) “inactive; negative”; (Test System: CHINESE HAMSTER V-79 CELLS, Strain/Indicator: V-79 CELLS (HPRT)/6-THIOGUANINE, Metabolic Activation: S-9 (3%), Method: PREINCUBATION) “inactive; negative”.

With `CCSc1cc(Cc2ccc(N)c(SCC)c2)ccc1N`, the mutagenic call under setting [1] was “inactive; negative”; the mutagenic call (Test System: AMES SALMONELLA TYPHIMURIUM, Strain/Indicator: TA98, Metabolic Activation: RAT, LIVER, S-9, PCB, Method: PREINCUBATION) is “active; positive”; the mutagenic call under setting [3] was “inactive; negative”; the mutagenic call (Test System: AMES SALMONELLA TYPHIMURIUM, Strain/Indicator: TA100, Metabolic Activation: RAT, LIVER, S-9, PCB, Method: PREINCUBATION) is “active; positive”.

As for `CNC(=O)Oc1cccc2c1OC(C)(C)C2`, the mutagenic call by setting is: (End Point: CHROMOSOMAL ABERRATIONS, Test System: BONE MARROW, Species: MOUSE, Strain/Sex: SWISS/MALE, Route: GAVAGE) “active; positive (structural changes)”; (End Point: IN VIVO MICRONUCLEUS, Test System: BONE MARROW POLYCHROMATIC ERYTHROCYTES, Species: MOUSE, Strain/Sex: KM/MALE, FEMALE, Route: IP INJECTION) “inactive; negative”; (Test System: AMES SALMONELLA TYPHIMURIUM, Strain/Indicator: TA97A, Metabolic Activation: NONE, Method: STANDARD PLATE) “inactive; negative”; under setting [2], “inactive; negative”; under setting [4], “inactive; negative”; under setting [5], “inactive; negative”. The mutagenic call by setting is: (Test System: AMES SALMONELLA TYPHIMURIUM, Strain/Indicator: TA104, Metabolic Activation: NONE, Method: STANDARD PLATE) “inactive; negative”; (Test System: AMES SALMONELLA TYPHIMURIUM, Strain/Indicator: TA1535, Metabolic Activation: NONE, Method: STANDARD PLATE) “inactive; negative”.
